From ChEMBL document CHEMBL4425167, “Screening Identifies Thimerosal as a Selective Inhibitor of Endoplasmic Reticulum Aminopeptidase 1” (ACS Med Chem Lett, 2016) come the findings set out here.

In general, IC50 refers to the concentration that gives 50% inhibition.

The source made the active and inactive calls. No cut-off for these calls is given here.

In assay [1] the test system is BMDC. Nature of the assay: Inhibition of ovalbumin cross presentation to OT-I Rag1-/-mouse CD8+ T cells in C57Bl/6 JRj mouse ERAP+/+ BMDC assessed as increase in IL-2 secretion from CD8+ T cells at 0.01 to 10 uM preincubated for 90 mins followed by 3 to 18 hrs incubation in presence of ovalbumin by sandwich ELISA method. Format: functional, cell-based. For orientation: An ELISA detects its analyte on a solid surface through an enzyme-linked reagent.

Assay [2] addresses T1, Endoplasmic reticulum aminopeptidase 1 (Homo sapiens, UniProt Q9NZ08). Nature of the assay: Inhibition of recombinant ERAP1 (unknown origin) expressed in baculovirus infected Hi5 cells using L-leucine 7-amido-4-methyl coumarin as substrate up to 30 uM by fluorescence microplate reader method.
The test system of assay [3] is BMDC. Briefly: Inhibition of ovalbumin cross presentation to OT-I Rag1-/-mouse CD8+ T cells in C57Bl/6 JRj mouse ERAP-/- BMDC assessed as increase in IL-2 secretion from CD8+ T cells at 0.01 to 10 uM preincubated for 90 mins followed by 3 to 18 hrs incubation in presence of ovalbumin by sandwich ELISA method. In kind it is functional, cell-based.
The target of assay [4] is T1, Endoplasmic reticulum aminopeptidase 1. Nature of the assay: Inhibition of human ERAP1 expressed in African green monkey COS7 cells using aminoacyl-4-methylcoumaryl-7-amide as substrate after 15 mins by spectrofluorophotometric method.

T1 sequence (Q9NZ08 whole entry): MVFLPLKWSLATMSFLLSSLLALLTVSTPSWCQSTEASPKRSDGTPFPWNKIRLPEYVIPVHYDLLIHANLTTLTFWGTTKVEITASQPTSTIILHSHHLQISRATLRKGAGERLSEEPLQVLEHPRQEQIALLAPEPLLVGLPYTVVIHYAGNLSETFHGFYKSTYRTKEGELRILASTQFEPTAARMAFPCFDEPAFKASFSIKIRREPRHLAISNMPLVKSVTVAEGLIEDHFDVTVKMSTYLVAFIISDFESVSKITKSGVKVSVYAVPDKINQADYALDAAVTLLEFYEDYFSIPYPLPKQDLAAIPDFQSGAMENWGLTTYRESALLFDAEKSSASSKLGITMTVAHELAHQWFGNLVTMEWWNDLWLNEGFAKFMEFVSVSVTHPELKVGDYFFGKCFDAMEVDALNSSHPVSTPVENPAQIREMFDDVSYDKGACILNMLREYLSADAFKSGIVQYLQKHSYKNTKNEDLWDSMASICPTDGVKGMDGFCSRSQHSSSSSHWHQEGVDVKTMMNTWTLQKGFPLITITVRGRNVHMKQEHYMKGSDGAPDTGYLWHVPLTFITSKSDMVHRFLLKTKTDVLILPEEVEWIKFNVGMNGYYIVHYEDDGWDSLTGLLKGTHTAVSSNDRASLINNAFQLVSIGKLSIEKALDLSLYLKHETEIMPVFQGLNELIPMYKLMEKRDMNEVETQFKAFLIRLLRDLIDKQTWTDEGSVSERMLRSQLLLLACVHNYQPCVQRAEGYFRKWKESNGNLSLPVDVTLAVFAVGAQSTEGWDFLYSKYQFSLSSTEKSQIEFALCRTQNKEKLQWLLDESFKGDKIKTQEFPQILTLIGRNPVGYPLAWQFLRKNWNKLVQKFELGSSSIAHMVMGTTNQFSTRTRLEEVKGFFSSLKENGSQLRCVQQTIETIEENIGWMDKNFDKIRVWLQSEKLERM

For the molecule `O=C(O)c1ccccc1S`, the inhibition entry in assay [1], in assay [2] and in assay [3] was “inactive” throughout.

As to `CC(C)C[C@H](NC(=O)[C@@H](O)[C@H](N)Cc1ccccc1)C(=O)O` [UBENIMEX], in assay [4], the IC50 was 50 to 100 µM.
